# Source: publication PMC9574860, “Chemical Toolkit for PARK7: Potent, Selective, and High-Throughput” (Journal of Medicinal Chemistry, 2022)
# Experiments:
# [1] = tested on: DUBs; test: DUB activity profiling in HEK293T cell lysate with general DUB probe Rho-Ub-PA; assay type: biochemical; details: compound 5 μM 1 h 37 °C, then Rho-Ub-PA 30 min, Figure S5
# Experimental: Due to the structural similarity of PARK7 inhibitor JYQ-88 and UCHL1 inhibitor 8RK64 and the fact that many cyanimide-containing compounds have been identified as DUB inhibitors,[35],[37] we investigated the inhibitory potential of JYQ-88 and JYQ-92 toward DUBs. After treating the HEK293T cell lysate with JYQ-88 and JYQ-92, along with UCHL1 inhibitors, 6RK73 and 8RK64 as controls,[38] the remaining activity of DUBs was determined using the general DUB probe Rho-Ub-PA (Figure S5).[39]
# Figure S5. Fluorescence labeling of DUBs to investigate their remaining activity by Rh-Ub-
# PA after the treatment with PARK7 inhibitor JYQ-88 and probe JYQ-92. UCHL1 inhibitors,
# 6RK73 and 8RK64, were used as a control. HEK293T cell lysate was treated with 5 μM final
# MOPS SDS running buffer (Novex, NuPAGE) and visualized by fluorescence scanning on a
# Typhoon FLA 9500 (GE Healthcare Life Sciences) using a Rhodamine channel (λex/em
# (1 picture or pasted object on this page, not shown here)
# [2] = tested on: PARK7 and UCHL1; test: Labeling of a mixture of purified recombinant UCHL1 and PARK7 with probe 8RK59 (SDS-PAGE, fluorescence scanning); assay type: binding; details: UCHL1 and PARK7 1 μM each, probe 2 μM, 30 min 37 °C
# Experimental: To determine the labeling efficiency of 8RK59 for both UCHL1 and PARK7, a mixture of equal amounts of purified recombinant UCHL1 and PARK7 (1 μM each) is labeled with 8RK59 (2 μM). […] To gain more insight into the inhibitor binding mode and to guide the design of novel PARK7 inhibitors, the crystal structure of the PARK7–8RK64 complex was solved with 1.21 Å resolution (Figure 2C, Table S1, PDB 7PA2). The structure is obtained as a monomer and compared to its apo structure (PDB 1J42). […] Globally, the inhibitor fits into a groove between two α-helices formed by residues 76–84 and 126–134 (Figure 2C, left panel). The covalent bond between 8RK64 and PARK7 is clearly visible (Figure 2C, middle panel). The cyanimide moiety of the inhibitor reacted to active site Cys106, thereby forming an isothiourea linkage, which is similar to what has been observed for the reaction of cyanamide-based and azanitrile inhibitors with cathepsins.[33],[34] The isothiourea moiety is stabilized by an H-bond between the NH and the carboxylate side chain of the nearby Glu18. Another interaction is found between the thiazole ring amine in the inhibitor and the amide NH2 of the Asn76 side chain. Hydrogen bonding between the carbonyl of the azidoacetyl moiety and the Leu128 backbone carbonyl via a water molecule is also observed. […]
# [3] = molecular target: T1, UCHL1 (Homo sapiens, UniProt P09936); test: UCHL1 activity assay (Ub-Rho-Morpholine or Ub-AMC substrate); assay type: biochemical; details: UCHL1 1 nM, 1 h preincubation; Figure 3E; read-out: UCHL1 IC50
# T1 sequence (P09936 1-223): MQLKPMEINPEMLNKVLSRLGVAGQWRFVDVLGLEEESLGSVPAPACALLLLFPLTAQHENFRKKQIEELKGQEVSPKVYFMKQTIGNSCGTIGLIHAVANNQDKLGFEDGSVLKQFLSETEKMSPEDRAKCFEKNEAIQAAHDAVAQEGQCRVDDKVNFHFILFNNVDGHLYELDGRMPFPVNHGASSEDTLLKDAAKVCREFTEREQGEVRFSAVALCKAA
# Experimental: The assay was performed in a buffer containing 50 mM Tris·HCl, 100 mM NaCl at pH 7.5, 2.0 mM cysteine, 1 mg/mL 3-[(3-cholamidopropyl)dimethylammonio]propanesulfonic acid (CHAPS), and 0.5 mg/mL bovine serum albumin and conducted in a 384-well plate (Corning 3820) with a reaction volume 20 μL in triplicate. The compounds were dissolved in DMSO as 10, 1, and 0.1 mM stock solutions and were transferred to obtain a 12-point serial dilution of 0.05 to 200 μM. Next, UCHL1 (15 μL, final concentration of 1 nM) was dispensed with a Biotek MultiFlowFX liquid dispenser and incubated for 1 h, followed by dispensing the substrate Ub-Rho-Morpholine or Ub-AMC (5 μL, final concentration of 400 nM). The FI signal was monitored with a BMG Labtech PHERAstar plate reader (λex/em 487/535 nm or λex/em 350/450 nm) for 1 h. N-Ethylmaleimide (NEM, 10 mM) was used as a positive control (100% inhibition), and DMSO was used as a negative control (0% inhibition). All samples were normalized to the positive and negative controls and plotted against the inhibitor concentrations (in μM) using the built-in equation “[inhibitor] vs response – variable slope (four parameters), least-squares fit” with constraints “Bottom = 0” and “Top = 100” in GraphPad Prism 9.0.1 software to obtain the IC50 values.
# [4] = molecular target: T1, UCHL1; test: Gel-based competition assay with probe 8RK59, UCHL1 band; assay type: biochemical; details: compound 2 μM, 1 h; PARK7 and UCHL1 1 μM each; then 8RK59 2 μM 30 min; Figure 3B
# Experimental: To assess the inhibitory potency and selectivity of these compounds toward PARK7 and UCHL1, we performed a gel-based competition assay (Figure 3A).[36] A mixture of equal amounts of PARK7 and UCHL1 (1 μM) was treated with each of the synthesized compounds (2 μM) for 1 h, followed by incubation with fluorescent probe 8RK59 (2 μM) for 30 min. Samples were resolved by SDS-PAGE, and the gel was scanned for fluorescence. Inhibition of PARK7 or UCHL1 is reflected by the disappearance of their corresponding bands (Figure 3B). […] The inhibition potential of JYQ-88 against PARK7 was assessed in a similar assay where PARK7 was incubated with a serial dilution of JYQ-88 before treatment with probe 8RK59 (Figure 3C). A clear inhibition is visible at 0.5 μM, and full inhibition is achieved between 1 and 2 μM. […] The selectivity of JYQ-88 between UCHL1 and PARK7 was further confirmed in a direct competition assay between equal amounts of PARK7 and UCHL1 (Figure 3F). PARK7 inhibition was observed starting from 0.5 μM JYQ-88, whereas inhibition of UCHL1 was only detected at 20 μM. Since JYQ-88 and 8RK64 are enantiomers, we assumed that the interactions with PARK7 should be similar. To investigate how the chiral center influences the selectivity, we solved the crystal structure of the PARK7−JYQ-88 complex with 1.42 Å resolution (Figure 3G, Table S1, PDB 7PA3). The global positioning of the inhibitor in between the two α-helices was similar to that for 8RK64. […] This way, the thiazolo-pyridine part of JYQ-88 is bound in a similar manner as 8RK64 and the earlier observed interactions are largely the same. The formation of the isothiourea moiety, stabilized by the interaction with Glu18, and the interaction between the thiazole amine and the amide NH2 of the Asn76 side chain are still present. However, the interaction between the azidoacetyl carbonyl with the Leu128 backbone carbonyl can no longer be observed due to the rotation of the azidoacetyl moiety. The Lys132 residue also seems to have rotated (compared to Figure 2C).
# The assay was performed in Tris buffer as described above.
# [5] = molecular target: T2, PARK7 (Homo sapiens, UniProt Q99497); test: Gel-based competition assay in HEK293T cell lysate with probe JYQ-92; assay type: biochemical; design: GST (N, cleaved yes); made in house; host or cells: E. coli BL21(DE3) Rosetta2; details: fragment 0.1–50 μM 2 h 37 °C, then JYQ-92 1 μM 30 min, Figure 6E
# T2 sequence (Q99497 1-189): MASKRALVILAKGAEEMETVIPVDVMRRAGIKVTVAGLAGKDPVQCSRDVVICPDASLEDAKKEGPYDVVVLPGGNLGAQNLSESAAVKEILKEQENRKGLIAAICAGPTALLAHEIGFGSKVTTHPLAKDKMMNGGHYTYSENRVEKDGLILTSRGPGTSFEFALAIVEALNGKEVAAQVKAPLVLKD
# Excerpt: We next assessed whether we could measure the inhibitory activity of an inhibitor against PARK7 in a cell lysate using JYQ-92 to label the remaining activity of PARK7. […] The disappearance of the labeling band is a measure for inhibition.
# [6] = molecular target: T2, PARK7; test: DiFMUAc PARK7 activity assay; assay type: biochemical; design: GST (N, cleaved yes); made in house; host or cells: E. coli BL21(DE3) Rosetta2; details: PARK7 0.1 μM, 2 h preincubation, DiFMUAc 300 μM; for inhibition at 12.5 µM: 12.5 µM compound, read-out: DiFMuAc assay %Inhibiton (12.5 µM); for inhibition at 37.5 µM: 37.5 µM compound, read-out: DiFMuAc assay %Inhibiton (37.5 µM); for inhibition at 100 µM: 100 µM compound, read-out: DiFMuAc assay %Inhibiton (100 µM)
# Experimental: Compounds were transferred using a Labcyte Echo550 acoustic dispenser to obtain a 12-point serial dilution of 0.001 to 100 μM. Next, PARK7 (15 μL, final concentration of 0.1 μM) was dispensed with a Biotek MultiFlowFX liquid dispenser and incubated for 1 h, followed by dispensing the substrate DiFMUAc (5 μL, final concentration of 300 μM). The fluorescence intensity (FI) signal was monitored with a BMG Labtech PHERAstar plate reader (λex/em 350/450 nm) for 1 h.
# The validation was performed in the PBS buffer with a reaction volume of 20 μL per well in triplicate. […] Next, PARK7 (15 μL, final concentration 0.1 μM) was dispensed with a Biotek MultiFlowFX liquid dispenser and incubated for 2 h, followed by dispensing the substrate DiFMUAc (5 μL, final concentration 300 μM). The FI signal was monitored with a BMG Labtech PHERAstar plate reader (λex/em 350/450 nm) for 1 h. The increase of FI signal compared with reference controls was used to calculate the remaining enzyme activity. The inhibition percentage of these 22 compounds was plotted as a heatmap using GraphPad Prism 9.0.1 software. Color gradients indicate inhibition percentage, no inhibiton (white) and full inhibition (blue).
# [7] = molecular target: T2, PARK7; test: FP assay with Rhodamine110 probe JYQ-107 (IC50 and hit validation); assay type: binding; design: GST (N, cleaved yes); made in house; host or cells: E. coli BL21(DE3) Rosetta2; details: PARK7 0.2 μM, 1 h preincubation, JYQ-107 20 nM; for inhibition at 12.5 µM: 12.5 µM compound, read-out: FP assay %Inhibiton (12.5 µM); for inhibition at 37.5 µM: 37.5 µM compound, read-out: FP assay %Inhibiton (37.5 µM); for inhibition at 100 µM: 100 µM compound, read-out: FP assay %Inhibiton (100 µM)
Ability to inhibit PARK7 in a cell lysate [5],inhibition at 12.5 µM [6] [%],inhibition at 37.5 µM [6] [%],inhibition at 100 µM [6] [%],inhibition at 12.5 µM [7] [%],inhibition at 37.5 µM [7] [%],inhibition at 100 µM [7] [%],SMILES,Effect on remaining DUB activity (Rho-Ub-PA labeled bands) [1],also measured
,,,,,,,"N#CN1CC[C@H](C(=O)Nc2ncc(N3CCOCC3)s2)C1 [6RK73, reference compound]",disappearance of the UCHL1 band,
,,,,,,,CC1=CC(C)=[N+]2C1=C(CCCCc1cn(CC(=O)N3CCc4nc(NC(=O)[C@H]5CCN(C#N)C5)sc4C3)nn1)c1c(C)cc(C)n1[B-]2(F)F [8RK59],,Labeling of PARK7 and UCHL1 by probe [2]: nearly equal extent
,,,,,,,"N#CN1CC[C@H](C(=O)Nc2nc3c(s2)CN(C(=O)CN=[N+]=[N-])CC3)C1 [8RK64, reference compound]",disappearance of the UCHL1 band,IC50 [3]: 230 nM; Inhibition of UCHL1 (disappearance of 8RK59-labeled band) [4]: fully inhibit
confirmed,95.8,95.2,97.1,100,100,100,CCC(C)c1ccc(NC(=O)CCl)cc1 (stereo not shown) [Z56886389],,
confirmed,97.9,97.6,97.3,100,100,100,O=C(O)c1csc(C(=O)CCl)c1 [Z763366298],,
